Numbered stars: 1 amine (or outer) side, 2 acyl side, 3 side chain; on linkers, the order of the positions; unused ones are H or OH. Bridge positions count the residues as written; N and C are the ends. Square brackets hold non-standard residues; d marks the D form. Peptide text beside a SMILES is read from it. * marks the point of attachment. ξ: configuration not given here. Bip = N[C@@H](Cc1ccc(-c2ccccc2)cc1)C(=O)O; NH(CH2)14COOH = O=C(O)CCCCCCCCCCCCCCN*; Phe(3-Me) = Cc1cccc(C[C@H](N)C(=O)O)c1; γGlu = O=C(O)[C@H](CCC(=O)[*:2])N[*:1]; Val(3-OH) = CC(C)(O)[C@H](N)C(=O)O; hArg = N=C(N)NCCCC[C@H](N)C(=O)O; 4Pal = N[C@@H](Cc1ccncc1)C(=O)O; 3Thi = N[C@@H](Cc1ccsc1)C(=O)O; Cha = N[C@@H](CC1CCCCC1)C(=O)O; Cit = NC(=O)NCCC[C@H](N)C(=O)O; Thr(3ξ) = CC(O)[C@H](N)C(=O)O; 12Ado = NCCCCCCCCCCCC(=O)O; Carboxymethyl = O=C(O)C*; Orn = NCCC[C@H](N)C(=O)O; Aun = NCCCCCCCCCCC(=O)O; Dab = NCC[C@H](N)C(=O)O; Dap = NC[C@H](N)C(=O)O; AEEA = NCCOCCOCC(=O)O; Piv = CC(C)(C)C(=O)*; Propargyl = C#CC*

For this assay, the target named is T1, PD-1/PD-L1 interaction (PE-labeled human PD-L1-Ig binding to Jurkat cell line over-expressing human PD-1) (Homo sapiens, UniProt Q15116).
T1 construct: expressed in transfected cells; host or cells: Jurkat
T1 sequence (Q15116 25-288): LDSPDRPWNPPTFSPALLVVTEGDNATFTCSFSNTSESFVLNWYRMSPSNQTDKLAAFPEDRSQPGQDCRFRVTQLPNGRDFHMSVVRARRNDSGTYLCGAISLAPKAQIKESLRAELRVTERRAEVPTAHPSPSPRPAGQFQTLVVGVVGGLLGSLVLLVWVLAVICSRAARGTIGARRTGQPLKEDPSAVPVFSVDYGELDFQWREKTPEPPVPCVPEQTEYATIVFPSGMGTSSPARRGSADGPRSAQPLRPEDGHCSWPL
Kind of assay: Jurkat-PD-1 Cell Binding High-Content Screening Assay (CBA). Format: cell-based. As to conditions: Jurkat cell line over-expressing human PD-1; PE-labeled PD-L1-Ig 20 nM final; read-out: Jurkat hPD1-PDL1 IC50. The method, boiled down:
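First, compound is added to PD-1-expressing Jurkat cells in serum-containing DMEM and left 2 h at 37° C. Next, PE-conjugated PD-L1-Ig is introduced at 20 nM final concentration for 1 hour. Finally, cells are fixed in 4% paraformaldehyde with Hoechst 33342, washed and imaged.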
On to `Cc1cccc(C[C@@H]2NC(=O)[C@H](CC(=O)O)NC(=O)[C@H](Cc3ccc(OCC(=O)O)cc3)NC(=O)[C@H](CCCNC(=N)N)NC(=O)CSC[C@@H](C(=O)N[C@@H](CCNC(=O)C(C)(C)C)C(=O)NCCCCCCCCCCC(=O)O)NC(=O)[C@H]([C@@H](C)O)NC(=O)[C@H](C(C)C)NC(=O)[C@H](CC3CCCCC3)NC(=O)[C@H](CCN)NC(=O)[C@@H](CC(C)C)NC(=O)[C@H](CCCN)NC(=O)[C@H](Cc3ccc(OCC(=O)O)cc3)NC(=O)[C@H](Cc3ccc(-c4ccccc4)cc3)NC(=O)[C@H](Cc3ccc(O)cc3)NC2=O)c1` [Compound 2117] ({CH2CO}-RY(Carboxymethyl)D[Phe(3-Me)]Y[Bip]Y(Carboxymethyl)[Orn][dL][Dab][Cha]VTC[Dab](Piv)[Aun]-OH; thioether N-14), for which the IC50 was 26.3 nM.

For the molecule `CC(C)C[C@H]1NC(=O)[C@H](CCCN)NC(=O)[C@H](C(C)C)NC(=O)[C@H](Cc2ccc(-c3ccccc3)cc2)NC(=O)[C@H](C(C)C)NC(=O)[C@H](Cc2c[nH]c3ccccc23)NC(=O)[C@H](CC(=O)O)NC(=O)[C@H](Cc2ccc(OCC(=O)O)cc2)NC(=O)[C@H](CN)NC(=O)CSC[C@@H](C(=O)NCCOCCOCC(=O)N[C@@H](CCC(=O)O)C(=O)NCCCCCCCCCCC(=O)O)NC(=O)[C@H]([C@@H](C)O)NC(=O)[C@H](C(C)C)NC(=O)[C@H](CC2CCCCC2)NC(=O)[C@H](Cc2cnc[nH]2)NC1=O` [Compound 1099] ({CH2CO}-[Dap]Y(Carboxymethyl)DWV[Bip]V[Orn][dL]H[Cha]VTC[AEEA]E[Aun]-OH; thioether N-14), the concentration for half-maximal inhibition (IC50) worked out at 13.8 nM.

Take `CC(C)C[C@H]1NC(=O)[C@H](CCCN)NC(=O)[C@H](C(C)C)NC(=O)[C@H](Cc2ccc(-c3ccccc3)cc2)NC(=O)[C@H](C(C)C)NC(=O)[C@H](Cc2c[nH]c3ccccc23)NC(=O)[C@H](CC(=O)O)NC(=O)[C@H](Cc2ccc(OCC(=O)O)cc2)NC(=O)[C@H](C(C)O)NC(=O)CSC[C@@H](C(=O)N[C@@H](CCN)C(=O)NCCOCCOCC(=O)N[C@@H](CCC(=O)NCCCCCCCCCCC(=O)O)C(=O)O)NC(=O)[C@H](CN)NC(=O)[C@H](C(C)O)NC(=O)[C@H](CC2CCCCC2)NC(=O)[C@H](CCN)NC1=O` (stereo partly drawn) [Compound 3662] ({CH2CO}-[Thr(3ξ)]Y(Carboxymethyl)DWV[Bip]V[Orn][dL][Dab][Cha][Thr(3ξ)][Dap]C[Dab][AEEA][γGlu][Aun]-OH; thioether N-14): the IC50 amounted to 15.1 nM.

As to `C#CCOc1ccc(C[C@@H]2NC(=O)[C@H](C(C)C)NC(=O)[C@H](CC3CCCCC3)NC(=O)[C@H](CCN)NC(=O)[C@@H](CC(C)C)NC(=O)[C@H](CCCN)NC(=O)[C@H](Cc3ccc(OCC(=O)O)cc3)NC(=O)[C@H](Cc3ccc(-c4ccccc4)cc3)NC(=O)[C@H](Cc3ccc(OCC(=O)O)cc3)NC(=O)[C@H](Cc3cccc(C)c3)NC(=O)[C@H](CC(=O)O)NC(=O)[C@H](Cc3ccncc3)NC(=O)[C@H](Cc3ccc(OCC(=O)O)cc3)NC(=O)CSC[C@@H](C(=O)N[C@@H](CCN)C(=O)NCCCCCCCCCCC(=O)O)NC2=O)cc1` [Compound 1249] ({CH2CO}-Y(Carboxymethyl)[4Pal]D[Phe(3-Me)]Y(Carboxymethyl)[Bip]Y(Carboxymethyl)[Orn][dL][Dab][Cha]VY(Propargyl)C[Dab][Aun]-OH; thioether N-14), the IC50 came out at 81.7 nM.

For `CC(C)C[C@H]1NC(=O)[C@H](CCCN)NC(=O)[C@H](C(C)C)NC(=O)[C@H](Cc2ccc(-c3ccccc3)cc2)NC(=O)[C@H](C(C)C)NC(=O)[C@H](Cc2c[nH]c3ccccc23)NC(=O)[C@H](CC(=O)O)NC(=O)[C@H](Cc2ccc(OCC(=O)O)cc2)NC(=O)[C@H](CN)NC(=O)CSC[C@@H](C(=O)NCCOCCOCC(=O)N[C@@H](CCCN)C(=O)NCCCCCCCCCCC(=O)O)NC(=O)[C@H](C(C)O)NC(=O)[C@H](C(C)C)NC(=O)[C@H](CC2CCCCC2)NC(=O)[C@H](CC(N)=O)NC1=O` (stereo partly drawn) [Compound 3193] ({CH2CO}-[Dap]Y(Carboxymethyl)DWV[Bip]V[Orn][dL]N[Cha]V[Thr(3ξ)]C[AEEA][Orn][Aun]-OH; thioether N-14), the IC50 was 14.4 nM.

With `CC(=O)NCCCC[C@@H]1NC(=O)[C@H](Cc2ccc(-c3ccccc3)cc2)NC(=O)[C@H](Cc2ccc(O)cc2)NC(=O)[C@H](Cc2cccc(C)c2)NC(=O)[C@H](CC(=O)O)NC(=O)[C@H](Cc2ccc(OCC(=O)O)cc2)NC(=O)[C@H](CN)NC(=O)CSC[C@@H](C(=O)N[C@@H](CCN)C(=O)N[C@@H](CO)C(=O)NCCCCCCCCCCCC(=O)O)NC(=O)[C@H](CCCN)NC(=O)[C@H](C(C)C)NC(=O)[C@H](CC2CCCCC2)NC(=O)[C@H](CCN)NC(=O)[C@@H](CC(C)C)NC(=O)[C@H](CCCN)NC1=O` [Compound 3619] ({CH2CO}-[Dap]Y(Carboxymethyl)D[Phe(3-Me)]Y[Bip]K(Ac)[Orn][dL][Dab][Cha]V[Orn]C[Dab]S[12Ado]-OH; thioether N-14), the IC50 stood at 13.4 nM.

In the case of `CC(C)C[C@H]1NC(=O)[C@H](CCCN)NC(=O)[C@H](CCC(=O)O)NC(=O)[C@H](Cc2ccc(-c3ccccc3)cc2)NC(=O)[C@H](C(C)C)NC(=O)[C@H](Cc2c[nH]c3ccccc23)NC(=O)[C@H](CC(=O)O)NC(=O)[C@H](Cc2ccncc2)NC(=O)[C@H](C(C)O)NC(=O)CSC[C@@H](C(=O)N[C@@H](C)C(=O)NCCOCCOCC(=O)N[C@@H](CCCCN)C(=O)NCCCCCCCCCCCCCCC(=O)O)NC(=O)[C@H](CO)NC(=O)[C@H](C(C)C)NC(=O)[C@H](CC2CCCCC2)NC(=O)[C@H](CCN)NC1=O` (stereo partly drawn) [Compound 3025] ({CH2CO}-[Thr(3ξ)][4Pal]DWV[Bip]E[Orn][dL][Dab][Cha]VSCA[AEEA]K-{NH(CH2)14COOH}; thioether N-14), the IC50 amounted to 80.5 nM.

With `Cc1cccc(C[C@@H]2NC(=O)[C@H](CC(=O)O)NC(=O)[C@H](Cc3ccc(OCC(=O)O)cc3)NC(=O)[C@H](CCN)NC(=O)CSC[C@@H](C(=O)N[C@@H](CCN)C(=O)NCCOCCOCC(=O)NCCCCCCCCCCCCCCC(=O)O)NC(=O)[C@H](Cc3c[nH]cn3)NC(=O)[C@H](C(C)(C)O)NC(=O)[C@H](CC3CCCCC3)NC(=O)[C@H](CCN)NC(=O)[C@@H](CC(C)C)NC(=O)[C@H](CCCN)NC(=O)[C@H](Cc3ccc(OCC(=O)O)cc3)NC(=O)[C@H](Cc3ccc(-c4ccccc4)cc3)NC(=O)[C@H](Cc3ccc(OCC(=O)O)cc3)NC2=O)c1` [Compound 2872] ({CH2CO}-[Dab]Y(Carboxymethyl)D[Phe(3-Me)]Y(Carboxymethyl)[Bip]Y(Carboxymethyl)[Orn][dL][Dab][Cha][Val(3-OH)]HC[Dab][AEEA]-{NH(CH2)14COOH}; thioether N-14), the IC50 came to 83.8 nM.

Take `CC(C)C[C@H]1NC(=O)[C@H](CCCN)NC(=O)[C@H](C(C)C)NC(=O)[C@H](Cc2ccc(-c3ccccc3)cc2)NC(=O)[C@H](C(C)C)NC(=O)[C@H](Cc2c[nH]c3ccccc23)NC(=O)[C@H](CC(=O)O)NC(=O)[C@H](Cc2ccc(OCC(=O)O)cc2)NC(=O)[C@H](CCCCNC(=N)N)NC(=O)CSC[C@@H](C(=O)NCC(=O)NCCOCCOCC(=O)N[C@@H](CCCN)C(=O)NCCCCCCCCCCCC(=O)O)NC(=O)[C@H](CO)NC(=O)[C@H](C(C)C)NC(=O)[C@H](CC2CCCCC2)NC(=O)[C@H](CCN)NC1=O` [Compound 3036] ({CH2CO}-[hArg]Y(Carboxymethyl)DWV[Bip]V[Orn][dL][Dab][Cha]VSCG[AEEA][Orn][12Ado]-OH; thioether N-14): the IC50 is 4.9 nM.

In the case of `CC(C)C[C@H]1NC(=O)[C@H](CCCN)NC(=O)[C@H](C(C)C)NC(=O)[C@H](Cc2ccc(-c3ccccc3)cc2)NC(=O)[C@H](C(C)C)NC(=O)[C@H](Cc2c[nH]c3ccccc23)NC(=O)[C@H](CC(=O)O)NC(=O)[C@H](Cc2ccc(OCC(=O)O)cc2)NC(=O)[C@H](CN)NC(=O)CSC[C@@H](C(=O)N[C@@H](C)C(=O)N[C@@H](CCCN)C(=O)NCCCCCCCCCCC(=O)O)NC(=O)[C@H]([C@@H](C)O)NC(=O)[C@H](C(C)C)NC(=O)[C@H](CC2CCCCC2)NC(=O)[C@H](Cc2cnc[nH]2)NC1=O` [Compound 1091] ({CH2CO}-[Dap]Y(Carboxymethyl)DWV[Bip]V[Orn][dL]H[Cha]VTCA[Orn][Aun]-OH; thioether N-14), the IC50 is 31.5 nM.

Turning to `CC(C)C[C@H]1NC(=O)[C@H](CCCCN)NC(=O)[C@H](C(C)C)NC(=O)[C@H](Cc2ccc(-c3ccccc3)cc2)NC(=O)[C@H](C(C)C)NC(=O)[C@H](Cc2c[nH]c3ccccc23)NC(=O)[C@H](CC(=O)O)NC(=O)[C@H](Cc2ccc(OCC(=O)O)cc2)NC(=O)[C@H](Cc2ccsc2)NC(=O)CSC[C@@H](C(=O)NCCOCCOCC(=O)N[C@@H](CCCN)C(=O)NCCCCCCCCCCC(=O)O)NC(=O)[C@H](C(C)O)NC(=O)[C@H](C(C)C)NC(=O)[C@H](CC2CCCCC2)NC(=O)[C@H](CCN)NC1=O` (stereo partly drawn) [Compound 3167] ({CH2CO}-[3Thi]Y(Carboxymethyl)DWV[Bip]VK[dL][Dab][Cha]V[Thr(3ξ)]C[AEEA][Orn][Aun]-OH; thioether N-14), the IC50 worked out at 59 nM.

For the molecule `Cc1cccc(C[C@@H]2NC(=O)[C@H](CC(=O)O)NC(=O)[C@H](Cc3ccc(OCC(=O)O)cc3)NC(=O)[C@H](CCCNC(=N)N)NC(=O)CSC[C@@H](C(=O)N[C@@H](CCN)C(=O)NCCCCCCCCCCC(=O)O)NC(=O)[C@@H](CCC(N)=O)NC(=O)[C@H](C(C)C)NC(=O)[C@H](CC3CCCCC3)NC(=O)[C@H](CCN)NC(=O)[C@@H](CC(C)C)NC(=O)[C@H](CCN)NC(=O)[C@H](CCCNC(N)=O)NC(=O)[C@H](Cc3ccc(-c4ccccc4)cc3)NC(=O)[C@H](C(C)C)NC2=O)c1` [Compound 2820] ({CH2CO}-RY(Carboxymethyl)D[Phe(3-Me)]V[Bip][Cit][Dab][dL][Dab][Cha]V[dQ]C[Dab][Aun]-OH; thioether N-14), the IC50 was found to be 23.9 nM.

In general, IC50 refers to the concentration that gives 50% inhibition.

The values are drawn from US20260022142A1, “MACROCYCLIC IMMUNOMODULATORS” (Bristol-Myers Squibb Company, priority 2022, published 2026).
